Data taken from patent US20240139188A1, “Arylamide Compounds For Treatment And Prevention Of Fungal Infections” (priority 2022, published 2024).
Converted amounts (≈) assume the structure as drawn. “And” between values parts separate entries of the source, which are not always exact repeats. Equal entries are not always repeated. Where two headings read alike, the source gives them in different places.

Tests used:
C. neoformans [1] = assay: MIC for yeasts, CLSI M27-A3; assay type: cell-based, Cryptococcus neoformans; conditions: Cryptococcus neoformans H99; read-out: MIC CAS
C. auris = assay: MIC for yeasts, CLSI M27-A3; assay type: cell-based, Candida auris
[2] = tested on: A. fumigatus null mutants; assay: Phosphatase and kinase null mutant screening; assay type: cell-based, Aspergillus fumigatus; note: key: +: sensitivity similar to wild-type; −: more sensitive than the wild-type
Procedure: Phosphatase and kinase null mutant screening: An A. fumigatus phosphatase deletion library encompassing 25 null mutants for phosphatase catalytic subunits (Winkelströter et al., G3 (Bethesda), 2015, 5, 1525-39) was screened for sensitivity to the combination of CAS+BRI. […] In each well a total of 200 μL of liquid MM plus conidia from the different mutants (1×10^4 conidia/mL) was incubated in the presence of BRI (20 μM).

[3] = tested on: A. fumigatus clinical isolates; assay: Growth inhibition of clinical isolates by CAS, VOR, BRI and combinations
A. fumigatus biofilms = assay: Biofilm assay (XTT); conditions: Aspergillus fumigatus, read-out: inhibition of biofilm formation
Procedure: Biofilm assay: To test the susceptibility of pre-formed A. fumigatus biofilms to
VOR, CAS and to the combination of CAS+BRI and VOR+BRI, a suspension containing 10^6 conidia per mL of the wild-type strain (Δku80 pyrG^+) was prepared in liquid MM and 100 μL of it was inoculated in each well of a 96-well plate. After 24 hours of incubation at 37° C., 50 μL of fresh MM containing CAS, VOR or the combination of VOR and CAS with BRI was added to the biofilm to reach the final concentration as indicated and incubated for a further 12 hours at 37° C. Wells containing untreated conidia were used as a positive control. After, the metabolic activity of the cells was evaluated by adding 50 μL of an aqueous XTT solution (1 mg/mL of XTT and 125 μM of menadione) to each well. The plate was incubated for additional 1 hour at 37° C., centrifuged (2000 rpm, 5 minutes) and 100 μL of the supernatant was transferred to a flat-bottomed 96-well plate. The absorbance was measured at 450 nm on a plate reader (Synergy HTX Multi-Mode Reader- BioTek Instruments). The XTT assay's were performed in six replicates.

A. fumigatus [4] = assay: Fungal burden, chemotherapeutic murine model of IPA; assay type: in vivo, BALB/c mice; conditions: CAS 1 mg/kg, 3 days post-infection, vs non-treated mice
Procedure: Fungal burden: Inbred female mice (BALB/c strain; body weight, 20-22 g) were housed in vented cages containing five animals. Mice were immunosuppressed with cyclophosphamide (150 mg per kg of body weight), which was administered intraperitoneally on days −4, −1 and 2 prior to and post infection (infection day is “day 0”). Hydrocortisonacetate (200 mg/kg body weight) was injected subcutaneously on day −3. Mice (5 mice per group) were anesthetized by halothane inhalation and infected by intranasal instillation of 20 μL of 1.0×10^6 conidia of A. fumigatus Δku80 pyrG^+ (wild-type) (the viability of the administered inoculum was determined by incubating a serial dilution of the conidia on MM medium, at 37° C.). As a negative control, a group of 5 mice received PBS only. […]
DNA quantity and quality were assessed using a NanoDrop 2000 spectrophotometer (Thermo Scientific). Quantitative real-time PCRs were performed using 400 ng of total DNA from each sample, and primers to amplify the 18S rRNA region of A. fumigatus and an intronic region of mouse GAPDH (glyceraldehyde-3-phosphate dehydrogenase). Six-point standard curves were calculated using serial dilutions of gDNA from A. fumigatus strain and the uninfected mouse lung. Fungal and mouse DNA quantities were obtained from the threshold cycle (Ct) values from an appropriate standard curve.

chitin synthase genes = assay: Chitin synthase mRNA accumulation (RT-qPCR); conditions: wild-type strain, 1 hour exposure; not in the mutant strains
Procedure: RNA-sequencing. cDNA synthesis and RTqPCR: All experiments were carried out in biological triplicates and conidia (10^7) were inoculated in liquid MM and A. fumigatus strains were grown for 16 hours at 37 ° C. and treated or not with different concentrations of BRI, CAS, or BRI+CAS for 1 hour. For total RNA isolation, mycelia were ground in liquid nitrogen and total RNA was extracted using TRIzol (Invitrogen), treated with RQ1 RNase-free DNase I (Promega), and purified using the RNAeasy kit (Qiagen) according to the manufacturer's instructions. RNA was quantified using a NanoDrop and Qubit fluorometer, and analyzed using an Agilent 2100 Bioanalyzer system to assess the integrity of the RNA.
For RT-qPCR, the RNA was reverse transcribed to cDNA using the ImProm-II reverse transcription system (Promega) according to manufacturer's instructions, and the synthesized cDNA was used for real-time analysis using the SYBR green PCR master mix kit (Applied Biosystems) in the ABI 7500 Fast real-time PCR system (Applied Biosystems, Foster City, CA, USA).

A. fumigatus [5] = assay: MIC/MEC, CLSI M38-A2; assay type: cell-based, Aspergillus fumigatus
C. albicans = assay: MIC for yeasts, CLSI M27-A3; assay type: cell-based, Candida albicans
CrzA:GFP = CrzA:GFP translocation to the nucleus; conditions: CAS 0.07 μg/ml, 30 minutes
Procedure: Conidia were germinated in YG medium and grown for 13 hours and then exposed or not to BRI, CAS, and BRI+CAS for 30 minutes.

C. neoformans [6] = assay: BRI+CAS against yeasts, colony forming units; conditions: CAS 16 μg/ml alone, 48 hours
Procedure: Combination of Brilacidin and caspofungin against yeasts: For measuring the effect of the combination BRI+CAS against yeast fungal pathogens, two methods were used: (i) metabolic activity by XTT-assay and (ii) colony forming units (CFUs). For the first method, C. neoformans, C. albicans, and C. auris 10^4 cells were inoculated in RPMI-1640 supplemented with CAS 0 to 32 μg/ml (for C. neoformans) and 0 to 1 μg/ml (for Candida spp.) or the same concentrations of CAS combined with BRI 0.625 μM (for C. neoformans), BRI 20 μM (for C. albicans), and BRI 10 μM (for C. auris). […] XTT-assays were also used for C. albicans caspofungin resistant strains but with CAS 0.5 μg/ml combined with BRI 5, 10 or 20 μM. The same experimental design was used for the CFUs determination, except that after 48 hours the cells present in the wells were plated on YPD (yeast extract 10g, peptone 20g, dextrose 20g, agar 20 g, water 1000 mL) and the plates were incubated at 30° C. for 24-48 hours for determining the survival percentage.

For `CC[C@H](C)C[C@H](C)CCCCCCCCC(=O)N[C@H]1C[C@@H](O)[C@@H](NCCN)NC(=O)[C@@H]2[C@@H](O)CCN2C(=O)[C@H]([C@H](O)CCN)NC(=O)[C@H]([C@H](O)[C@@H](O)c2ccc(O)cc2)NC(=O)[C@@H]2C[C@@H](O)CN2C(=O)[C@H]([C@@H](C)O)NC1=O` [CAS, caspofungin], the MIC (C. neoformans [1]) was 32 µg/mL (≈ 29.3 µM), the “MIC CAS” value (C. auris; Candida auris 468/2015) was 1.0 µg/mL (≈ 0.915 µM) and the “MIC CAS” value (C. auris; Candida auris 469/2015) was 1.0 µg/mL (≈ 0.915 µM). For the same compound, the “MIC CAS” value (C. auris; Candida auris 470/2015) was 1.0 µg/mL (≈ 0.915 µM), the “MIC CAS” value (C. auris; Candida auris 471/2015) was 1.0 µg/mL (≈ 0.915 µM) and the MIC (C. auris; Candidozyma auris, Candida auris 467/2015, read-out: MIC CAS) was 1 µg/mL (≈ 0.915 µM). The “sensitivity, CAS (0.25 μg/mL)” value ([2]; Afs35 (wild-type; A1159)) was “+”, the “sensitivity, CAS (0.25 μg/mL)” value ([2]; CEA17 (wild-type; A1160)) was “+” and the “sensitivity, CAS (0.25 μg/mL)” value ([2]; ΔcalA (Afu5g09360)) was “+”. For the same compound, the “sensitivity, CAS (0.25 μg/mL)” value ([2]; ΔcdcA (Afu3g12250)) was “+”, the “sensitivity, CAS (0.25 μg/mL)” value ([2]; ΔdspA (Afu1g13040)) was “+” and the “sensitivity, CAS (0.25 μg/mL)” value ([2]; ΔdspB (Afu1g03540)) was “+”. For the same compound, the “sensitivity, CAS (0.25 μg/mL)” value ([2]; ΔdspD (Afu2g02760)) was “+”, the “sensitivity, CAS (0.25 μg/mL)” value ([2]; ΔltpA (Afu2g01880)) was “+” and the “sensitivity, CAS (0.25 μg/mL)” value ([2]; ΔmpkA) was “−”. The “sensitivity, CAS (0.25 μg/mL)” value ([2]; ΔmpkB) was “+”, the “sensitivity, CAS (0.25 μg/mL)” value ([2]; ΔmpkC) was “+” and the “sensitivity, CAS (0.25 μg/mL)” value ([2]; ΔnemA (Afu1g09460)) was “+”. For the same compound, the “sensitivity, CAS (0.25 μg/mL)” value ([2]; ΔpphA (Afu5g12010)) was “+”, the “sensitivity, CAS (0.25 μg/mL)” value ([2]; ΔppmA (Afu8g04580)) was “+” and the “sensitivity, CAS (0.25 μg/mL)” value ([2]; ΔppsA (Afu5g11690)) was “+”. The “sensitivity, CAS (0.25 μg/mL)” value ([2]; ΔpptA (Afu5g06700)) was “+”, the “sensitivity, CAS (0.25 μg/mL)” value ([2]; ΔppzA (Afu2g03950)) was “+” and the “sensitivity, CAS (0.25 μg/mL)” value ([2]; ΔpsrA (Afu1g04790)) was “+”. For the same compound, the “sensitivity, CAS (0.25 μg/mL)” value ([2]; ΔptcA (Afu1g15800)) was “+”, the “sensitivity, CAS (0.25 μg/mL)” value ([2]; ΔptcB (Afu1g09280)) was “+” and the “sensitivity, CAS (0.25 μg/mL)” value ([2]; ΔptcD (Afu5g13740)) was “+”. For the same compound, the “sensitivity, CAS (0.25 μg/mL)” value ([2]; ΔptcE (Afu2g03890)) was “+”, the “sensitivity, CAS (0.25 μg/mL)” value ([2]; ΔptcF (Afu1g06860)) was “+” and the “sensitivity, CAS (0.25 μg/mL)” value ([2]; ΔptcG (Afu5g13340)) was “+”. The “sensitivity, CAS (0.25 μg/mL)” value ([2]; ΔptcH (Afu4g00720)) was “+”, the “sensitivity, CAS (0.25 μg/mL)” value ([2]; ΔptpB (Afu3g10970)) was “+” and the “sensitivity, CAS (0.25 μg/mL)” value ([2]; ΔptyA (Afu6g06650)) was “+”. The “sensitivity, CAS (0.25 μg/mL)” value ([2]; ΔpypA (Afu4g04710)) was “+”, the “sensitivity, CAS (0.25 μg/mL)” value ([2]; ΔsakA) was “+” and the “sensitivity, CAS (0.25 μg/mL)” value ([2]; ΔsakA, ΔmpkC) was “+”. For the same compound, the “sensitivity, CAS (0.25 μg/mL)” value ([2]; ΔsitA (Afu6g11470)) was “+”, the “sensitivity, CAS (0.25 μg/mL)” value ([2]; ΔyphA (Afu4g07000)) was “+” and the “growth, CAS alone” value ([3]; CM7555 CAS^R, CAS 0.25 μg/mL) was “+”. The “growth, CAS alone” value ([3]; CM7555 CAS^R, CAS 2 μg/mL) was “+”, the “growth, CAS alone” value ([3]; CM7555 CAS^R, CAS 4 μg/mL) was “+” and the “growth, CAS alone” value ([3]; DPL1033 CAS^R, CAS 0.25 μg/mL) was “+”. The “growth, CAS alone” value ([3]; DPL1033 CAS^R, CAS 2 μg/mL) was “+”, the “growth, CAS alone” value ([3]; DPL1033 CAS^R, CAS 4 μg/mL) was “+” and the “growth, CAS alone” value ([3]; MD24053 CAS^R, CAS 0.25 μg/mL) was “+”. The “growth, CAS alone” value ([3]; MD24053 CAS^R, CAS 2 μg/mL) was “+”, the “growth, CAS alone” value ([3]; MD24053 CAS^R, CAS 4 μg/mL) was “+” and the “growth, CAS alone” value ([3]; WT, CAS 0.25 μg/mL) was “+”. For the same compound, the “growth, CAS alone” value ([3]; WT, CAS 2 μg/mL) was “+”, the “growth, CAS alone” value ([3]; WT, CAS 4 μg/mL) was “+” and the inhibition at 0.25 µg/mL (A. fumigatus biofilms) was about 10%. For the same compound, the inhibition at 2 µg/mL (A. fumigatus biofilms) was about 10%, the “reduction of fungal burden in the lungs” value (A. fumigatus [4]) was “approximately 50%” and the “chitin synthase gene expression” value (chitin synthase genes) was “induce some of these genes”. For the same compound, the “MEC of CAS” value (A. fumigatus [5]; A. fumigatus) was 0.2 µg/mL and 0.25 µg/mL, the “MEC CAS” value (A. fumigatus [5]; A. fumigatus CM7555 CAS^R) was 16 µg/mL and the “MEC CAS” value (A. fumigatus [5]; A. fumigatus DPL1033 CAS^R) was 16 µg/mL. The “MEC CAS” value (A. fumigatus [5]; A. fumigatus MD24053 CAS^R) was 16 µg/mL, the “MEC CAS” value (A. fumigatus [5]; A. fumigatus WT) was 0.25 µg/mL and the “MEC CAS” value (A. fumigatus [5]; A. fumigatus clinical isolates susceptible to CAS) was 0.25 µg/mL. The “MEC CAS” value (A. fumigatus [5]; CAS-resistant clinical strains DPL1033, MD24053, CM7555) was 16 µg/mL, the MIC (C. albicans; Candida albicans SC5314, read-out: MIC CAS) was 0.25 µg/mL (≈ 0.229 µM) and the MIC (C. albicans; Candida albicans, read-out: MIC CAS, Candida albicans DPL1006 CAS^R (FKS1 F641L)) was 2 µg/mL (≈ 1.83 µM). For the same compound, the MIC (C. albicans; Candida albicans, read-out: MIC CAS, Candida albicans DPL1007 CAS^R (FKS1 F641S)) was 4 µg/mL (≈ 3.66 µM), the MIC (C. albicans; Candida albicans, read-out: MIC CAS, Candida albicans DPL1009 CAS^R (FKS1 S645Y)) was 4 µg/mL (≈ 3.66 µM) and the MIC (C. albicans; Candida albicans, read-out: MIC CAS, Candida albicans DPL1010 CAS^R (FKS1 S645F)) was 2 µg/mL (≈ 1.83 µM). The MIC (C. albicans; Candida albicans, read-out: MIC CAS, Candida albicans DPL1011 CAS^R (FKS1 S645F + R1361R/H)) was 4 µg/mL, the “germlings with CrzA:GFP in the nuclei” value (CrzA:GFP) was 28.3% and the “decrease of survival (CFUs)” value (C. neoformans [6]) was “about 50%”.
